Measurements reported in patent publication US8119667B2, “Carbonates of fenicol antibiotics” (Schering-Plough Animal Health Corporation, priority 2005, dated 2012).
Converted amounts (≈) assume the structure as drawn.

Tests used:
[1] = In vitro enzymatic release of parent florfenicol from prodrugs in bovine serum; type: in vitro ADME; conditions: 37° C.
Description: The ability of a prodrug derivative of a parent drug molecule to act efficiently in vivo as a source of the free parent drug determines the utility of a particular prodrug for treatment. The prodrug's ability to release the parent drug in vivo, in the presence of endogenous enzymes, can be determined by measuring the systemic levels of the parent drug after administration of the prodrug to the animal. This releasibility can also be assessed in vitro by measuring the release of the parent drug after mixing with animal whole blood, plasma or serum. Selected benzylic carbonate prodrugs of florfenicol were tested for release of florfenicol after in vitro mixing with bovine serum. […] A general trend of more lipophilic carbonates of florfenicol showing higher rates of degradation and release seems to be present among the compounds tested.
50 microliter of stock solution of carbonate pro-drug (10 mg/mL in DMSO) was added to 5 mL donor bovine serum and mixed. Aliquots of 400 microliter of the resulting solution were transferred into 1.5 mL plastic centrifuge tubes. Each plastic tube was placed into at 37° C. water bath for incubation. Samples were removed at 0, 1, 2, 4, 8, and 24 hours, and after addition of 400 microliter of acetonitrile to stop the reaction, rapidly stirred for 30 seconds. The precipitate was removed by centrifugation on an Eppendorf 5415G at 14000 rpm for 5 minutes. The clear supernatant solution was sampled for the HPLC analysis. The peak area of florfenicol was used to calculate the conversion of the prodrugs.

[2] = Solubility in triacetin/benzyl alcohol 2:1 (volume/volume) solvent mixture; type: physicochemical; conditions: 20° C.
Method: Florfenicol parent drug was not soluble in triacetin/benzyl alcohol 2:1 (volume/volume) even at concentrations as low as 10% (weight/volume). […] The combination of prodrug of Example 14 at 275 mg/ml and florfenicol at 100 mg/ml was soluble in triacetin/benzyl alcohol 2:1 (volume/volume) and provided a stable solution with 30% (weight/volume) content of florfenicol (Table 4, supra, entry 12).

Aqueous solubility = type: physicochemical; conditions: aqueous medium (not further specified)
Method: In some therapeutic applications florfenicol is administered in concentrated organic solution subcutaneously where it is known to form localized depot of the drug which results in the desired sustained release of the drug into the circulation. In such cases solubility of florfenicol in aqueous media represents one of important factors determining the rate of the sustained release. Another important factor affecting the sustained release of florfenicol from the subcutaneous depot site is the concentration of the dosing solution and the solvent composition of the formulation. Apart from the broader range of solvents which can be used for acceptable formulations of florfenicol benzylic carbonate prodrugs these prodrugs also allow a wide range of aqueous solubilities. Solubilities achieved with these prodrugs range from slightly to dramatically lower than that of florfenicol. Reduced aqueous solubilities of such prodrugs may be useful in controlling the rate of dissolution of the prodrug at the subcutaneous depot site and may allow achieving optimized sustained release of the parent drug.

[3] = Syringeability of dosing solutions (dripping-syringe method); type: physicochemical; conditions: prodrug concentration equivalent to 300 mg/ml florfenicol, Triacetin/benzyl alcohol - 2:1 (vol/vol)
Method: Table 4, below, provides evaluations of the syringeability of dosing solutions of selected florfenicol benzylic carbonate prodrugs at concentrations equivalent to 300 mg/ml florfenicol (30% weight/volume).
High concentrations of fenicol or fenicol drug contained in a fenicol prodrug are often necessary for convenient administration of the necessary amount of the desired amount of the antibiotic. Due to the limited solubility of fenicols in many organic solvents or mixtures of solvents acceptable for injectable formulations the choice of solvents for preparation of highly concentrated florfenicol solutions is limited. As a result highly concentrated solutions of fenicol drugs in organic solvents or solvent mixtures may become highly viscous and difficult to administer by a syringe. Therefore the ability of fenicol benzylic carbonate prodrugs to dissolve in a wider range of organic solvents or mixtures of solvents acceptable for injectable formulations offered the potential to prepare highly concentrated solutions for injections with lower viscosity. […] Test solutions of florfenicol benzylic carbonates containing concentrations of florfenicol (mg/mL) equivalent to the concentration present in Nuflor® formulation were prepared. Syringeabilities of the solutions were evaluated by means of the “dripping syringe” method in which the dripping times (sec) of equal volumes of such solutions under free gravitational flow conditions from a vertically positioned syringe were measured at 15° C. After removing the plunger from a 5 ml polyethylene disposable syringe (5 ml Luer, Norm-Ject Zentrish/Henke Saas Wolf GMBH) and fitting the syringe with a disposable needle (B-D® 16G1 Precision Glide/BentonDickinson & CO) the test solutions were loaded from the top into the syringe and the time necessary for the free flow of 2 mL of solution (between 3 ml and 1 ml marks) was recorded in triplicate. The syringeabilities relative to Nuflor® were calculated by dividing the dripping time for the test solutions (entries 1-12) by the dripping time measured for the commercial sample of Nuflor® formulation (entry 13) As it is evident from the results in Table 4 the syringeabilities of tested solutions containing benzyl alcohol as viscosity diluent had relative syringeabilities <1.00 and were therefore better than Nuflor® (30% weight/volume florfenicol solution in propylene glycol/polyethylene glycol 300/2-methyl pyrolidinone). Due to their better syringeability these solutions represent more favorable formulations for injectable delivery of florfenicol. Solution of the florfenicol benzylic carbonate of the example 2 in triacetin/2-pyrolidinone—1/1 lacking the benzyl alcohol viscosity diluent was the only solution with syringeability poorer that than that of Nuflor® (entry 5).

SMILES: CS(=O)(=O)c1ccc([C@@H](OC(=O)OCCOC(=O)O[C@H](c2ccc(S(C)(=O)=O)cc2)[C@@H](CF)NC(=O)C(Cl)Cl)[C@@H](CF)NC(=O)C(Cl)Cl)cc1 [Example 26, Bis((1R,2S)-2-(2,2-dichloroacetamido)-3-fluoro-1-(4-(methylsulfonyl)phenyl)propyl)ethane-1,2-diyl dicarbonate]
- melting point: 110 to 112 °C
- Florfenicol released from prodrugs (% of total) after treatment with bovine serum ([1]; 0 h): BQL
- Florfenicol released from prodrugs (% of total) after treatment with bovine serum ([1]; 1 h): BQL
- Solubility at selected concentration of contained florfenicol ([2]; 10% weight/volume florfenicol): soluble
- Solubility at selected concentration of contained florfenicol ([2]; 20% weight/volume florfenicol): soluble
- Solubility at selected concentration of contained florfenicol ([2]; 25% weight/volume florfenicol): soluble
- Solubility at selected concentration of contained florfenicol ([2]; 30% weight/volume florfenicol): soluble
- Solubility at selected concentration of contained florfenicol ([2]; 35% weight/volume florfenicol): soluble
- Solubility at selected concentration of contained florfenicol ([2]; 37% weight/volume florfenicol): soluble
- Solubility at selected concentration of contained florfenicol ([2]; 40% weight/volume florfenicol): soluble
- solubility (Aqueous solubility): 45 µg/mL (≈ 54.2 µM)
- Syringeability measurement: Relative to NUFLOR ([3]; 15° C.): 0.93
- Syringeability measurement: Dripping time ([3]; free flow of 2 mL at 15° C.): 216 ± 8 s
